Experimental data published in US10730850B2, “Pyridinylmethyl carbamimidoylcarbamate derivatives and their use as AOC3 inhibitors” (Boehringer Ingelheim International GmbH, priority 2016, dated 2020).
Read-outs that look alike come from different tables or passages of the source.

Legend:
[1] = biological target: AOC3 (Homo sapiens (Human), UniProt Q16853); assay: MAO-Glo AOC3 assay (recombinant CHO cells overexpressing AOC3); format: biochemical
Source text: The MAO-Glo™ Assay (commercial available from PROMEGA, # V1402) provides a sensitive method for the measurement of monoamine oxidase (MAO) activity (Valley, M. P. et al., 2006, Anal. Biochem. 359: 238-246) from a variety of tissues, biofluids or recombinant expressed or purified enzymes. As substrate a derivate of the beetle luciferin ((4S)-4,5-dihydro-2-(6-hydroxybenzothiazolyl)-4-thiazole-carboxylic acid) is used, which is oxidized at a primary amine moiety. After a spontaneous elimination and a catalyzed esterase reaction, the turnover of the luciferine by the luciferase is recorded as a signal of AOC3 activity.
An aliquot of 3 μL of the compound dilution is added to a 384 well plate (Optiplate, PS, flat bottom, white, PERKIN ELMER, #6007290) with a final DMSO concentration of 6.6%. Recombinant CHO cells, overexpressing the human (1500 cells/well), mouse (1000 cells/well) or rat (500 cells/well) AOC3 enzyme are diluted in reaction buffer and added in a volume of 15 μL to the wells. After incubation for 20 minutes at 37° C., 2 μL of MAO substrate (dissolved in DMSO at 16 mM, adjusted to assay concentration in reaction buffer to a final assay concentration of 20 μM) is added and further incubated for 60 minutes at 37° C. The turnover of the substrate is determined by the addition of 20 μL of the detection-mix which was generated by the addition of reconstitution buffer with esterase (PROMEGA, # V1402) to the luciferine detection reagent (PROMEGA, # V1402). After an incubation period of 20 minutes, the luminescent signal is measured with Envision 2104 Multilabel Reader (PERKIN ELMER).
In the following table the activity expressed as IC50 (nM) of compounds according to the invention is presented wherein the IC50 values are determined in the MAO-Glo™ AOC3 assay as described hereinbefore. The term “Example” refers to the example numbers according to the following experimental section.

[2] = test system: hepatocytes; assay: Metabolic stability assay in hepatocyte suspension; format: in vitro ADME; details: 1 μM test compound
Protocol: The metabolic degradation of the test compound is assayed in a hepatocyte suspension. Hepatocytes (typically cryopreserved) are incubated in an appropriate buffer system (e.g. Dulbecco's modified eagle medium plus 3.5 μg glucagon/500 mL, 2.5 mg insulin/500 mL and 3.75 mg/500 mL hydrocortison) containing 5% species serum. Following a (typically) 30 min preincubation in an incubator (37° C., 10% CO2) 5 μl of test compound solution (80 μM; from 2 mM in DMSO stock solution diluted 1:25 with medium) are added into 395 μl hepatocyte suspension (cell density in the range 0.25-5 Mio cells/mL, typically 1 Mio cells/mL; final concentration of test compound 1 μM, final DMSO concentration 0.05%). The cells are incubated for six hours (incubator, orbital shaker) and samples (25 μl) are taken at 0, 0.5, 1, 2, 4 and 6 hours. Samples are transferred into acetonitrile and pelleted by centrifugation (5 min). The supernatant is transferred to a new 96-deepwell plate, evaporated under nitrogen and resuspended. Decline of parent compound is analyzed by HPLC-MS/MS
CLint is calculated as follows CL_INTRINSIC=Dose/AUC=(C0/CD)/(AUD+clast/k)×1000/60. C0: initial concentration in the incubation [μM], CD: cell density of vital cells [10e6 cells/mL], AUD: area under the data [μM×h], clast: concentration of last data point [μM], k: slope of the regression line for parent decline [h-1].
The calculated in vitro hepatic intrinsic clearance can be scaled up to the intrinsic in vivo hepatic Clearance and used to predict hepatic in vivo blood clearance (CL) by the use of a liver model (well stirred model). CL_INTRINSIC_INVIVO [ml/min/kg]=(CL_INTRINSIC [μL/min/10e6 cells]×hepatocellularity [10e6 cells/g liver]×liver factor [g/kg bodyweight])/1000 CL [ml/min/kg]=CL_INTRINSIC_INVIVO [ml/min/kg]×hepatic blood flow [ml/min/kg]/(CL_INTRINSIC_INVIVO [ml/min/kg]+hepatic blood flow [ml/min/kg])

[3] = Table 2, comparative compounds of EP 2 695 881, read-out: IC50
[4] = Table 3, comparative compounds of EP 2 695 881

Sequence of AOC3 (Q16853 whole entry): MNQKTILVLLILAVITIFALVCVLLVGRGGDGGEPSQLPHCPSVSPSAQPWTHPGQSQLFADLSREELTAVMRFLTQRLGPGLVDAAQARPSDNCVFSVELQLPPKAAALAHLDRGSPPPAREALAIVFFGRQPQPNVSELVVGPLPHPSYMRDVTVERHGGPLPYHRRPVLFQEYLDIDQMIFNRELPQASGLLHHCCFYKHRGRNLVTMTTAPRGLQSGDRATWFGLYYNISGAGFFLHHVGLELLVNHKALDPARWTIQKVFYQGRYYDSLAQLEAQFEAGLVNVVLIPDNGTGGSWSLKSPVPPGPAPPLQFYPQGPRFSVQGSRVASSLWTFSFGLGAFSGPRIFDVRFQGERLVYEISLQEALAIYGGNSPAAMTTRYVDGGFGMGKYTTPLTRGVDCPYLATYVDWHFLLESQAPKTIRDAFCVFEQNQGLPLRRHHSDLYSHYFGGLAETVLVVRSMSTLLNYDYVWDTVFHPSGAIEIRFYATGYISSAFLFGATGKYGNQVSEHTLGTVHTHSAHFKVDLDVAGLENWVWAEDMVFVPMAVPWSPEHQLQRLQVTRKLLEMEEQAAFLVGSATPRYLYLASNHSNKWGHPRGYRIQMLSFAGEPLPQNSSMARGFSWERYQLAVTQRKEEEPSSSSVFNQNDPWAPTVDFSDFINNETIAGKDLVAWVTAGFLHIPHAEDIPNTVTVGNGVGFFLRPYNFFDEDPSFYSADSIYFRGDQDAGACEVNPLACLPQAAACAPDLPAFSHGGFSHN

Compound	IC50 ([1]; Table 1, read-out: AOC3 IC50) [nM]	QH ([2]; Table 4) [%]	also measured
COc1ccc(N2CCN(c3cccc(COC(=O)NC(=N)N)c3F)CC2)cc1 [57 (227), reference compound]	–	–	IC50 [1, 3]: 3.9 nM; QH [2, 4]: 20%
COc1ncc(N2CCN(c3cccc(COC(=O)NC(=N)N)c3F)CC2)cn1 [126 (235), reference compound]	–	–	IC50 [1, 3]: 3.9 nM; QH [2, 4]: 11%
CC(=O)N1CCC(C2CN(c3cccc(COC(=O)NC(=N)N)n3)C2)CC1 [Example 1.016]	10	6	–
N=C(N)NC(=O)OCc1ccnc(N2CCC(C3CCOCC3)CC2)c1F [Example 1.023]	8	14	–
N#Cc1ccc(N2CCN(c3nccc(COC(=O)NC(=N)N)n3)CC2)cc1 [Example 1.027]	2	9	–
N=C(N)NC(=O)OCc1ccnc(N2CCN(c3ccccc3)C(=O)C2)c1F [Example 1.033]	6	4	–
COc1ncc(N2CCN(c3cccc(COC(=O)NC(=N)N)n3)CC2)cn1 [Example 1.036]	7	16	–
N=C(N)NC(=O)OCc1ccnc(N2CC=C(c3ccc(F)cc3)CC2)c1F [Example 1.037]	9	20	–
COc1ncc(N2CCN(c3nccc(COC(=O)NC(=N)N)n3)CC2)cn1 [Example 1.040]	7	7	–
CC(=O)N1CCC(C2CN(c3nccc(COC(=O)NC(=N)N)c3F)C2)CC1 [Example 1.047]	8	<4	–
N#CC1(c2ccccc2)CCN(c2nccc(COC(=O)NC(=N)N)c2F)CC1 [Example 1.050]	2	10	–
N#Cc1cccc(N2CCN(c3nccc(COC(=O)NC(=N)N)c3F)CC2)c1 [Example 1.054]	1	14	–
N#Cc1ccc(N2CCN(c3nccc(COC(=O)NC(=N)N)c3F)CC2)cc1 [Example 1.055]	2	16	–
COc1cccc(C2=CCN(c3nccc(COC(=O)NC(=N)N)c3F)CC2)c1 [Example 1.058]	4	18	–
Cc1cc(C)cc(N2CCN(c3nccc(COC(=O)NC(=N)N)c3F)CC2)c1 [Example 1.061]	8	13	–
N=C(N)NC(=O)OCc1ccnc(N2CC3CC2CN3c2cccc(F)c2)c1F (stereo not shown) [Example 1.066]	278	–	–
N=C(N)NC(=O)OCc1ccnc(N2CC=C(c3ccc(Cl)cc3)CC2)c1F [Example 1.069]	15	–	–
N#CC1CCN(C2CCN(c3nccc(COC(=O)NC(=N)N)c3F)CC2)CC1 [Example 1.070]	77	–	–
N=C(N)NC(=O)OCc1ccnc(N2CCC(N3CC[S+]([O-])CC3)CC2)c1F [Example 1.080]	86	–	–
N=C(N)NC(=O)OCc1ccnc(N2CCC(N3CCC(C(N)=O)CC3)CC2)c1F [Example 1.088]	48	–	–
COC(=O)c1ccc(N2CCN(c3nccc(COC(=O)NC(=N)N)c3F)CC2)nn1 [Example 1.094]	14	–	–
N=C(N)NC(=O)OCc1ccnc(N2CCN(c3ccc(C(F)(F)F)cc3)CC2)c1F [Example 1.097]	11	–	–
N=C(N)NC(=O)OCc1ccnc(N2CCN(c3ncc(C(F)(F)F)cn3)CC2)c1F [Example 1.098]	15	–	–
CC(C)(C)OC(=O)N1CC(C2CCN(c3nccc(COC(=O)NC(=N)N)c3F)CC2)C1 [Example 1.102]	65	–	–
N#Cc1ccc(N2CCN(c3nccc(COC(=O)NC(=N)N)c3F)CC2)c(C(F)(F)F)c1 [Example 1.105]	31	–	–

Now from value to compound, other results behind:

IC50 ([1]; Table 1, read-out: AOC3 IC50) [nM]	QH ([2]; Table 4) [%]	Compound	also measured
3	16	N=C(N)NC(=O)OCc1ccnc(N2CCC(c3ccncc3)CC2)c1F [Example 1.010]	–
3	<4	N=C(N)NC(=O)OCc1ccnc(N2CCN(c3ccncc3)CC2)c1F [Example 1.011]	–
3	6	N=C(N)NC(=O)OCc1ccnc(N2CCN(c3cncnc3)CC2)c1F [Example 1.017]	–
9	23	Cc1cccc(N2CCN(c3nccc(COC(=O)NC(=N)N)c3F)CC2)c1 [Example 1.031]	–
2	<4	Cc1cc(N2CCN(c3nccc(COC(=O)NC(=N)N)c3F)CC2)ccn1 [Example 1.039]	–
9	12	N=C(N)NC(=O)OCc1ccnc(N2CCC(c3ccc(F)cc3)CC2)c1F [Example 1.041]	–
9	56	N=C(N)NC(=O)OCc1ccnc(N2CCN(c3cccc(F)c3)CC2)c1F [Example 1.044]	–
2	20	N#Cc1cccc(C2CCN(c3nccc(COC(=O)NC(=N)N)c3F)CC2)c1 [Example 1.051]	–
4	12	N#Cc1ccc(N2CCN(c3nccc(COC(=O)NC(=N)N)c3F)CC2)nc1 [Example 1.056]	–
3	–	N#Cc1ccc(N2CCN(c3nccc(COC(=O)NC(=N)N)c3F)CC2)cn1 [Example 1.057]	–
16	–	N#Cc1cnc(N2CCN(c3nccc(COC(=O)NC(=N)N)c3F)CC2)nc1 [Example 1.059]	–
217	–	Cc1cccc(C)c1N1CCN(c2nccc(COC(=O)NC(=N)N)c2F)CC1 [Example 1.060]	–
11	–	CCc1ccc(N2CCN(c3nccc(COC(=O)NC(=N)N)c3F)CC2)cc1 [Example 1.062]	–
13	–	Cc1ccc(N2CCN(c3nccc(COC(=O)NC(=N)N)c3F)CC2)cc1C [Example 1.063]	–
6	14	COc1cnc(C2=CCN(c3nccc(COC(=O)NC(=N)N)c3F)CC2)nc1 [Example 1.064]	–
5	40	COc1ccc(C2CCN(c3nccc(COC(=O)NC(=N)N)c3F)CC2)cc1 [Example 1.065]	–
5	23	COc1ccc(N2CCN(c3nccc(COC(=O)NC(=N)N)c3F)CC2)cc1 [Example 1.067]	IC50 ([1]; Table 2, compounds of the present invention, read-out: IC50): 4.6 nM; QH ([2]; Table 3, compounds of the present invention): 10%
8	–	COc1cnc(C2CCN(c3nccc(COC(=O)NC(=N)N)c3F)CC2)nc1 [Example 1.071]	–
10	–	COc1cnc(N2CCN(c3nccc(COC(=O)NC(=N)N)c3F)CC2)nc1 [Example 1.073]	–
14	–	N=C(N)NC(=O)OCc1ccnc(N2CCC(c3cccc(Cl)c3)CC2)c1F [Example 1.075]	–
39	–	N=C(N)NC(=O)OCc1ccnc(N2CCN(c3ccccc3Cl)CC2)c1F [Example 1.076]	–
11	–	N=C(N)NC(=O)OCc1ccnc(N2CCC(c3ncc(Cl)cn3)CC2)c1F [Example 1.079]	–
22	–	N=C(N)NC(=O)OCc1ccnc(N2CC(c3ccc(OCC4CC4)cc3)C2)c1F [Example 1.081]	–
2	–	N=C(N)NC(=O)OCc1ccnc(N2CCC(c3ccc(C(=O)O)cc3)CC2)c1F [Example 1.082]	–
12	–	CCOc1ccc(C2CCN(c3nccc(COC(=O)NC(=N)N)c3F)CC2)cn1 [Example 1.087]	–
10	–	CN(C)Cc1ccc(C2CCN(c3nccc(COC(=O)NC(=N)N)c3F)CC2)cc1 [Example 1.090]	–
17	–	COC(=O)c1cnc(N2CCN(c3nccc(COC(=O)NC(=N)N)c3F)CC2)nc1 [Example 1.093]	–
12	–	N=C(N)NC(=O)OCc1ccnc(N2CCC(c3ccc(C(F)(F)F)cc3)CC2)c1F [Example 1.096]	–
